We go through two compounds from article PMC6540222, “Small Molecule Inhibitors of KDM5 Histone Demethylases Increase the Radiosensitivity of Breast Cancer Cells Overexpressing JARID1B” (Molecules, 2019).

Data set [1] has as its system MCF-7 cells. As to the kind of experiment: Clonogenic assay after X-ray irradiation. The format is cell-based, human. The note with it: for proliferative capacity (clonogenic survival): MCF-7, 10 μM, compared to DMSO control. The protocol:
One hour after treatment with inhibitors, cells were exposed to X-ray using a MLG 300/6-D apparatus (Gilardoni, Lecco, Italy) set to […] and 6 mA, in order to produce an equivalent absorbed dose of 1cGy/s. Afterwards, cells were harvested, counted and then diluted in inhibitor containing growth medium. Appropriate cell numbers were seeded in quadruplicate according to the doubling time of the cell line and to radiation dose. 24 h after this seeding, the medium with inhibitor was replaced with fresh DMEM and cells were then incubated for 14 days (enough time to allow at least six cell divisions). After this period of growth, cells were washed twice with PBS and then fixed and stained with a suitable volume of a solution made of 0.3% Methylene Blue and 80% Ethanol for 30 min at room temperature. After washing cells twice with ddH2O, plates were pictured with ChemiDoc XRS+ Imaging System (Bio-Rad) in colorimetric mode. Colonies were detected using Fiji software, with the “Find maxima” function setting a background noise threshold of 3000. Radiation-dose response curveS to X-ray for DMSO and inhibitor samples were calculated using surviving fraction. Plating efficiency and surviving fraction were calculated as follows:Plating efficiency = number of colonies counted/number of cells plated Surviving fraction = Plating efficiency/plating efficiency of shame sample

The subject of data set [2] is AhR pathway in MCF-7 cells. In words: Real Time PCR of CYP1A1 and AHRR transcripts (AhR pathway). The conditions noted are these: MCF-7, 10 μM. It is filed as cell-based, human. The protocol: Total RNA from treated cells was isolated using miRNeasy® mini kit (#217004, Qiagen, Venlo, Netherlands), according to producer’s protocol guidelines. One μg of total RNA was reverse-transcribed using QuantiTect® Reverse Transcription Kit (#205311, Qiagen), according to producer’s protocol guidelines (Qiagen).
Relative quantification of gene expression was performed with the 7500 Real Time PCR System (Thermo Fisher Scientific (Applied Biosystems), Waltham, MA, USA) using SensiFAST™ SYBR® Lo-ROX Kit (#BIO 94020, Bioline, London, UK). The relative amount of mRNA expression was determined by means of ΔΔCt method, using GAPDH as internal control. Primers were designed using www.ncbi.nlm.nih.gov/tools/primer-blast/ and purchased from Sigma-Aldrich. The following oligos were used: • -3′ CYP1A1 mRNA: • - Fw: 5′- […]-3′ • CYP1A1 mRNA: • - Rv: 5′- […]-3′ • AHRR mRNA: • - Fw: 5′- […]-3′ • AHRR mRNA: • - Rv: 5′- […]-3′-3′ • GAPDH mRNA: • - Fw: 5′- […]-3′ • GAPDH mRNA: • - Rv: 5′- CGTTGTCATACCAGGAAAT-3′
(In general: Real-time PCR tracks product formation cycle by cycle.)

Data set [3] deals with MCF-7 cells. As to the kind of experiment: Flow-cytometry analysis of cell cycle distribution. The note with it: for cells in G2/M / subG1 cells (possible apoptotic fraction): MCF-7, 30 μM. It is filed as cell-based, human. The protocol:
Flow-cytometry analysis of DNA content was carried out using an EPICS xl flow-cytometer (Beckman-Coulter, Brea, CA, USA). DMSO and inhibitor treated MCF-7 cells were trypsinized, pelleted, washed with PBS and finally resuspended in PBS containing 0.1% Triton-X-100 (#A1388.1000, AppliChem, Darmstadt, Germany) and 40 μg/mL propidium iodide (#P-4170, Sigma). After 20 min incubation at 37 °C the samples were analyzed. 10,000 events were acquired for each sample. Acquired data were analyzed using the WinMDI software by Joe Trotter, available at http://facs.scripps.edu.

For data set [4], the system named is MCF-7 cells. As to the kind of experiment: CCK-8 viability assay after X-ray irradiation. The format is cell-based, human. The conditions noted are these: MCF-7 irradiated with 3 Gy, all concentrations tested, compared to DMSO control, CCK-8 48 h post irradiation. As to the method: The cytoxicity assay was performed with Cell Counting Kit-8 (#96992, Sigma-Aldrich) according to the manufacturer’s instructions. 100 µL of MCF-7 T47D or MDA-MB231 cell suspension (5000 cells/well) was dispensed in a 96-well plate. After 24 h, inhibitor or DMSO was added in growth medium and then cells were irradiated. 48 h post irradiation, 10 μL of CCK-8 solution was added to each well of the plate and incubated again for 1 h. Incubate the plate for 1–4 h in the incubator. The absorbance at 450 nm was read using a VICTOR2 1420 reader (Perkin Elmer Wallac, Waltham, MA, USA). The absorbance at 450 nm of each sample, which is proportional to the number of viable cells, was first normalized on the same value of absorbance of blank (a well with only growth medium). The absorbance of each dose of radiation (sham, 0.3, 1 and 3 Gy) was normalized to the corresponding DMSO control and then, for each concentration of inhibitors, these values were normalized to the corresponding sham control.
Background: Formazan colour is commonly taken as a measure of viable cells.

The target of data set [5] is KDM5D (Homo sapiens, UniProt Q9BY66). As to the kind of experiment: Surface Plasmon Resonance (SPR), immobilized KDM5D. The format is binding. The note with it: KDM5D immobilized on COOH5 sensorchip, buffer HSP-1%D, analyte 6.25-100 μM. The protocol:
Surface Plasmon Resonance (SPR) experiments were carried out using a SensiQ Pioneer system (ICx Nomadics, Stillwater, OK, USA). Immobilization of ligand (KDM5D) was carried out essentially as in Ilari et al.. The sensor chip (COOH5) was activated chemically by a 100 µL injection of a 1:1 mixture of N-ethyl-N′-(3-([…])carbodiimide (200 mM) and N-hydroxysuccinimide (50 mM) at a flow rate of 5 µL/min. KDM5D was immobilized on activated sensor chips via amine coupling. The immobilization was carried out in 20 mM sodium acetate at pH 4.5; the remaining unreacted groups were blocked by injecting 1 M ethanolamine hydrochloride (100 µL). The amount of immobilized KDM5D was detected by mass concentration-dependent changes in the refractive index on the sensor chip surface and corresponded to about 11,000 resonance units (RU); an empty flow cell was used as a reference. Analytes, i.e., inhibitors RS3152, RS3183, RS3195, RS4995 and RS5033 were dissolved in DMSO at a concentration of 10 mM and diluted in HSP buffer (10 mM Hepes pH 7.4, 150 mM NaCl + 0.005% surfactant P20) to yield 100 μM inhibitor concentration in HSP + 1% DMSO (HSP-1%D). The analytes were automatically diluted in HSP-1%D and injected on the sensorchip for 120 s at a constant flow (30 µL/min); analyte concentrations were: (1) 6.25 μM; (2) 12.5 μM; (3) 25 μM; (4) 50 μM; (5) 100 μM. The increase in RU relative to baseline indicates complex formation; the plateau region represents the steady-state phase of the interaction, whereas the decrease in RU after 120 s represents dissociation of analytes from immobilized KDM5 after injection of buffer HSP-1%D. The sensorgrams were analysed using the SensiQ Qdat 4.0 program and using simple Scatchard plots.

A word on the Kd: it is a measure of binding affinity in units of concentration.

Sequence of KDM5D (Q9BY66 whole entry): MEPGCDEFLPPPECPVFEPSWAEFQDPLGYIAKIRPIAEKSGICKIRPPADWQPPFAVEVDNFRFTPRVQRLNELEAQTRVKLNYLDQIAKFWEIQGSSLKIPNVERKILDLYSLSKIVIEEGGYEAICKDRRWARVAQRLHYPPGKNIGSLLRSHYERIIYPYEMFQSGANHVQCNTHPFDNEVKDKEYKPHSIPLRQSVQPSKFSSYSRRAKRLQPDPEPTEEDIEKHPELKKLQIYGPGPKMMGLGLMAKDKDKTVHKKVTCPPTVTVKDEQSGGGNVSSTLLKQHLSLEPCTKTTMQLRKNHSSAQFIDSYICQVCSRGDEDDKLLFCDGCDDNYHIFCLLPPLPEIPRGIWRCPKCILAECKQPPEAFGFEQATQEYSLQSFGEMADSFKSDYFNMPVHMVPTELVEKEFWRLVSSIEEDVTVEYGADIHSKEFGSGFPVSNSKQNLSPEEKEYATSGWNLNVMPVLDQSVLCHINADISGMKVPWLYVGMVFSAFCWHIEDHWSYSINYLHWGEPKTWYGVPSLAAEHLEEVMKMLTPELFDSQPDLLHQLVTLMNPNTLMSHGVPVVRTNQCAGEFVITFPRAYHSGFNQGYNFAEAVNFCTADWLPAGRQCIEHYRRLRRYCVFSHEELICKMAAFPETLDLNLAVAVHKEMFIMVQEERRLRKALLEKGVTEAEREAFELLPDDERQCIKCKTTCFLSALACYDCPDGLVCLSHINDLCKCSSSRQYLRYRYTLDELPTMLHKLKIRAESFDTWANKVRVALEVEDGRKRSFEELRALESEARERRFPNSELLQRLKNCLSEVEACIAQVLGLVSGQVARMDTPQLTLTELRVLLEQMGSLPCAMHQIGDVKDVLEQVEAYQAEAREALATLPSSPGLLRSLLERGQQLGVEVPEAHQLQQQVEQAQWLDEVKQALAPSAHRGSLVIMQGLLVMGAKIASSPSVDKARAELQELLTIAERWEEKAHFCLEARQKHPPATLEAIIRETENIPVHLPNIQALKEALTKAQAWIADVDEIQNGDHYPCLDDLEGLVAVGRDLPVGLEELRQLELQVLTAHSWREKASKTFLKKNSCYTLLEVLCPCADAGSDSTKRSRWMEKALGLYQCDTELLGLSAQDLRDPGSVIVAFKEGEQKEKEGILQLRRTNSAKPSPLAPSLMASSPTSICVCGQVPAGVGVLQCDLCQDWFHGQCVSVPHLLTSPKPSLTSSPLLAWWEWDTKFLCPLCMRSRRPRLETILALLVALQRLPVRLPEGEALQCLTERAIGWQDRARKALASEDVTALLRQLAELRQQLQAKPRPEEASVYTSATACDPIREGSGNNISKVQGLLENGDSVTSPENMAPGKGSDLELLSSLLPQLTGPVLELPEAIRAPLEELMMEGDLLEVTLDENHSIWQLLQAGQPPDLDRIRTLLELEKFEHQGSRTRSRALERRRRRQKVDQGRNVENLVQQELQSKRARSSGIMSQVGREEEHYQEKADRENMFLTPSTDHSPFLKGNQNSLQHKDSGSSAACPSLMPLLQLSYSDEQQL

Take `CCOC(=O)c1cccn1C(=O)c1cccc(NS(=O)(=O)c2ccc(OC)cc2)c1` [RS3195]: in data set [1] (irradiated), the “proliferative capacity (clonogenic survival)” value is “no significant effect”. For the same compound, the “number of clones in sham-irradiated cells” value in data set [1] (MCF-7, sham-irradiated (not shown)) was “lower number of clones”. In data set [2], the “CYP1A1 and AHRR transcript levels (AhR pathway genes)” value is recorded as “induces the genes involved in AhR pathway”. In data set [3] (MCF-7, 1 μM), the cell cycle dynamics result is listed as “No cell cycle perturbation”. For the same compound, the cell cycle dynamics entry in data set [3] (MCF-7, 10 μM) was “slight but significant increase of G0/G1 population”. Further, in data set [3], the “cells in G2/M” value is listed as “clear increase of cells in G2/M” and the “subG1 cells (possible apoptotic fraction)” value is listed as “consistent increase of subG1 cells”. Also, the “reduction of viable cells” value in data set [4] is “more limited effect”. This compound also had a Kd in data set [5] of 38 ± 2 µM.

In the case of `CCOC(=O)c1ccccc1C(=O)c1cccc(NS(=O)(=O)c2ccc(OC)cc2)c1` [RS5033], the “proliferative capacity (clonogenic survival)” value in data set [1] (3 Gy irradiation dose) is on record as “slight but significant decrease”. Also, the “CYP1A1 and AHRR transcript levels (AhR pathway genes)” value in data set [2] is “only a slight increase”. For the same compound, the “perturbation of cell cycle dynamics” value in data set [3] (MCF-7, 10 μM and 30 μM) is “no significant perturbation”. Also, in data set [3], the “cells in G2/M” value is given as “not observed” and the “subG1 cells (possible apoptotic fraction)” value is “not observed”. The “reduction of viable cells” value in data set [4] is listed as 20–35%. Also, the Kd in data set [5] was determined as 32 ± 2 µM.
